row,SMILES,melting point
1,CCOC(=O)C1=C(COCCNC(N)=S)NC(C)=C(C(=O)OC)C1c1ccccc1Cl (centres undefined),204 °C
2,COc1ccc(Nc2nc(N3CCOCC3)nc(-n3c(C(F)F)nc4c(OC)cccc43)n2)nn1,256 to 259 °C
3,Cc1ccc(S(=O)(=O)n2cc3c(c2)SC(=C2SC(SCCc4ccc([N+](=O)[O-])cc4)=C(SCCc4ccc([N+](=O)[O-])cc4)S2)S3)cc1,143 to 144 °C
4,COC(=O)Cc1ccc(OCCNC(=O)C2Cc3ccccc3N2S(=O)(=O)c2ccc(-c3cc(C)ccc3F)cc2)cc1 (centres undefined),55 to 58 °C
5,Cc1cc([N+](=O)[O-])c(O)c2c1CCC2=O,154 to 157 °C
6,CC(=O)N(CCN1CCNC1=C(C#N)C#N)Cc1ccc(CN2CCCCC2)o1,166 to 167 °C
7,CCN1c2ncc(CCc3ccnc(CO)c3)cc2C(=O)N(C)c2ccc(Cl)nc21,133 to 134 °C
8,Cc1nn(C)c2c1Nc1ccccc1NC2=O,189 to 190 °C
9,COC(=O)c1ccc([N+](=O)[O-])cc1NC(=O)c1ccc(C(C)(C)C)cc1,146 to 148 °C
10,FC(F)(F)c1cc(-n2cncn2)c2cccc(C(F)(F)F)c2n1,106 to 107 °C
11,Nc1c2c(nc3ccccc13)CCc1cn(N)nc1-2,> 250 °C
12,CCOC(=O)c1c[nH]cc1C(=O)OCC,148 to 149 °C
13,COP(=O)(OC)C(NC=O)P(=O)(OC)OC,95 °C
14,COC(=O)c1ncc(N)nc1N,252 to 254 °C
15,C=C1C(O)C(CO)OC1n1cc(I)c(=O)[nH]c1=O (centres undefined),169 to 172 °C
16,COc1ccc(-c2c3c(cc4ccc(OCc5ccccc5)cc24)C(=O)NC3)cc1,213 to 216 °C
17,CC(Cl)c1nc2c(c(=O)n(C)c(=O)n2C)n1C (centres undefined),190 °C
18,COc1cc2ncc(N[C@H]3CC[C@H](C(=O)OC)CC3)nc2cc1OC,68 to 80 °C
19,c1ccc(C(c2ccccc2)(c2ccccc2)N2CCCCC2)cc1,156 to 158 °C
20,COc1cc(Cc2cnc(N)nc2N)cc(OC)c1C(C)(C)O,183 to 185 °C
21,CCCNS(=O)(=O)c1cc2cc(P(=O)(O)O)c(=O)[nH]c2cc1Cl,> 300 °C
22,CN1C(=O)N=NC1CSc1ccccc1OCCc1coc(-c2ccccc2)n1 (centres undefined),130 to 132 °C
23,CCOC(=O)C1=C2Nc3ccccc3N2CC1,269 to 271 °C
24,COc1cccc(-c2c(F)c(F)c(N)c(F)c2F)c1,94 to 96 °C
25,CCCCNc1c(C(=O)OCC)c(C)nc2[nH]c(O)nc12,249 to 252 °C

row,SMILES,melting point
1,COc1cc2c(cc1-c1c(C)nn(C)c1C)-c1c(-c3cccs3)c3c(n1CC2)C(=O)N(C(C)C)CCN(C(=O)OC(C)(C)C)C3,232 to 234 °C
2,Cc1[nH]c(=O)ccc1-c1ccc(S(C)=O)cc1 (centres undefined),262 to 264 °C
3,CC(C)C1=C(C#N)C(c2ccccc2Br)c2c(n[nH]c2CC#N)N1 (centres undefined),> 250 °C
4,Nc1ccccc1C(=O)C1CC1,46 to 48 °C
5,O=C(c1ccc(Cl)cc1)c1cc(CBr)ccc1Cl,81 to 83 °C
6,CC(=O)SCC(CC(N)=O)C(=O)O (centres undefined),110 to 111 °C
7,CC(C)(C(=O)O)c1ccc(C(=O)Nc2cn3cc(-c4ccoc4)ccc3n2)cc1,307 to 309 °C
8,NCCCNc1ccc(Cl)nn1,125 °C
9,CCSC(C)C(=O)N(CC)c1c[nH]nc1Cl (centres undefined),78 to 80 °C
10,O=C(c1cccnc1)N1CCC(c2ccc(Br)cc2)=N1,117 to 119 °C
11,CC1(C)CCc2cc(C#N)ccc2O1,30 to 31 °C
12,COc1cc(C(=O)O)ccc1Cc1cccc2ccc(CCCC(=O)N3CCOCC3)cc12,160 to 161 °C
13,COC(=O)c1cccc2nc(SCCCN3CCN(CC(=O)Nc4c(SC)cc(C)nc4SC)CC3)oc12,76 to 79 °C
14,N#Cc1c(OCCO)nc(CCO)nc1N1CCc2ccccc2CC1,118 to 120 °C
15,COC(=O)CCCN(C(=O)C(C)N(C(C)=O)c1ccc(OC)cc1)c1ccc(OC)cc1 (centres undefined),111 to 113 °C
16,CN1CCN(c2cccc3ccc(NC(=O)C(F)(F)F)cc23)CC1,159 to 160 °C
17,CCCc1ccccc1OCCCCCOc1coc(C=O)cc1=O,95 to 96 °C
18,CC(C)(C)OC(=O)N1C(=O)C(Br)=C(c2cn(C(=O)OC(C)(C)C)c3cc(OCc4ccccc4)ccc23)C1=O,120 °C
19,OCC(O)(CO)c1ccc(F)cc1F,58 to 59 °C
20,Cc1oc(-c2ccccc2)nc1CC#Cc1ccc(CC(C(=O)O)c2ccc(-c3ccccc3)cc2)cc1 (centres undefined),163 to 165 °C
21,Nc1nc(NCCc2cc(Br)cs2)nc2c1ncn2C1OC(CO)C(O)C1O (centres undefined),136 to 144 °C
22,N=C(N)NCCCOc1ccc2c(c1)NC(=O)C(CCC(=O)O)C2 (centres undefined),157 to 159 °C
23,CC(O)(CCCc1ccc(Cl)cc1)c1ccc(OCc2ccc3ccccc3n2)cc1 (centres undefined),110 to 112 °C
24,CS(=O)(=O)C(=C1CN(C(c2ccccc2)c2ccccc2)C1)c1ccccc1O,196 °C
25,CCOc1ccc2[nH]c3c([N+](=O)[O-])ccc(Cl)c3c(=O)c2c1,244 to 246 °C

row,SMILES,melting point
1,COC(=O)c1ccc(-c2cnc3[nH]c(=O)n(CC4CCCCC4)c3n2)cc1,253 to 255 °C
2,C=C(C)C(=O)Nc1cc(C(C)(C)C)c(O)c(C(C)(C)C)c1,222 to 225 °C
3,O=C(c1cc2ccnc(Cl)c2[nH]1)N1CCOCC1,170 to 171 °C
4,COC(=O)c1cc(S(C)=O)ccc1OC (centres undefined),64 to 66 °C
5,CCC(C(=O)OC)(C(=O)OC)C(Cc1cc(Cl)ccc1[N+](=O)[O-])c1ccc(OC)cc1 (centres undefined),95.5 to 97 °C
6,CCCc1nc(C(=O)CC)c(C#N)n1C(c1ccccc1)(c1ccccc1)c1ccccc1,96 °C
7,COc1ccc(C2CC(=O)C(=C3SC4NCCNC4S3)C(=O)C2)cc1 (centres undefined),160 to 162 °C
8,N=C(NO)c1cc(C(F)(F)F)cc(-c2ccc(Cl)cc2)n1,180 to 186 °C
9,O=C(O)CCc1oc(/C=C/c2ccccc2)nc1-c1ccccc1,138 to 139 °C
10,N#Cc1c(-c2ccc(OCc3ccccc3)cc2)cn(-c2cccc(OCCCl)c2)c1N,77 to 79 °C
11,CC1(C)CC(=C(c2ccc(O)cc2)c2ccc(CCCO)cc2)CC(C)(C)C1,160 to 161 °C
12,CC(=O)OC1CSC(Oc2cncc(-c3c(C)noc3C)c2)C(OC(C)=O)C1OC(C)=O (centres undefined),129 to 131 °C
13,Nc1cccc(Nc2nccc(Sc3cccc(Br)c3)n2)c1,109 to 110 °C
14,O=c1c(Br)c(OCc2ccccc2)ccn1Cc1ccc(OCc2ccccc2)cc1,138 to 144 °C
15,CCCNc1ncnc2c1ncn2C1CC(F)C(CO)O1 (centres undefined),114 to 115 °C
16,Cc1cccc(NC(c2ccc(F)c(F)c2)c2ccc3cccnc3c2O)n1 (centres undefined),162 to 165 °C
17,CCOC(=O)c1cccc(NC(=O)C(CSC(C)=O)Cc2ccccc2)c1 (centres undefined),89 to 92 °C
18,C(=C1CC(c2ccccc2)Cc2ccccc21)c1cncn1Cc1ccccc1 (centres undefined),198 °C
19,COc1ccc(CSc2nnc(-c3ccc4[nH]ncc4c3)o2)cc1C#N,192 to 193 °C
20,"CN(Cc1cc2c(=O)c(C(=O)NCc3ccc(Cl)cc3)cn(C)c2o1)CC(O)c1cnccn1 (single isomer, unassigned; (+))",148 to 151 °C
21,CCC12CC(O)C(O)(c3ccccc3)CC1CC(O)c1cc(O)ccc12 (centres undefined),185 to 187 °C
22,C1CN(c2nc(NC3CC3)nc(C3CC3)n2)CCS1,133 to 134 °C
23,NCc1ccccc1C1CCN(c2c(F)c(N)c3c(=O)c(C(=O)O)cn(C4CC4)c3c2F)C1 (centres undefined),164 to 165 °C
24,Cc1sc2c(Br)c3ccccc3c(-c3ccc(O)c(N)c3)c2c1C,173 to 175 °C
25,COC(=O)C1=C(O)c2ccc3ccccc3c2S(=O)(=O)N1C,229 to 230 °C

row,SMILES,melting point
1,CC(CCC(=O)C(C)(C)OO)C1CCC2C3CC=C4CC(OC5CCCCO5)CCC4(C)C3CCC12C (centres undefined),130 to 131 °C
2,Cn1cc(-c2cccc(C(F)(F)F)c2)c(=O)n1-c1cccc(Cl)c1,130 to 131 °C
3,Cc1[nH]c2ccccc2c1C1=C(c2c(C)[nH]c3ccccc23)C(=O)N(C)C1=O,> 290 °C
4,COC(C)C(=O)Nc1ccc(C2=NNC(=O)CC2)cc1 (centres undefined),245 to 247 °C
5,Cc1cc(NC(=O)C(F)(c2ccccc2)c2nnn(CCCCCCCCCCCC(F)F)n2)c(C)c(C)c1O (centres undefined),96 °C
6,CCc1[nH]c(=O)c(C#N)cc1-c1ccncc1,> 300 °C
7,O=C(NCc1ccc(Cl)cc1)c1cc(Cl)c2cccnc2c1O,163 to 166 °C
8,CCC(C)(C)c1cc(-c2ccc(F)c(C=C3SC(N4CCOCC4)=NC3=O)c2)ccc1O,246 to 247 °C
9,CC(=O)OC1CSC(Oc2cccnc2Cl)C(OC(C)=O)C1OC(C)=O (centres undefined),160 °C
10,O=C1c2cc([N+](=O)[O-])cc3c(N4CCCC4)c([N+](=O)[O-])cc(c23)C(=O)N1O,249 to 250 °C
11,CCC1C(=O)c2c(cc(O)c(Cl)c2Cl)C1c1ccccc1 (centres undefined),220 to 222 °C
12,Cc1ccc(S(=O)(=O)N2CCC[C@H]2C(=O)N[C@@H](Cc2ccc(OCCCN(C)Cc3ccccc3)cc2)C(=O)O)cc1,87 to 90 °C
13,CC(=O)NC[C@H]1CN(c2ccc(C3=CCSCC3)c(F)c2)C(=O)O1,119 to 122 °C
14,N#Cc1ccc(OCCCNCCO)cc1,88 °C
15,O=C1C(Cl)C(CCl)CN1c1cccc(Cl)c1 (centres undefined),93 to 94 °C
16,ClCc1coc(-c2ccc(Cl)o2)n1,107 to 108 °C
17,Oc1ccc(Nc2cnc3cnc(-c4ccc(O)cc4)nc3c2)cc1,168 to 170 °C
18,Cc1cc(C(=O)CC(O)(c2cc(Cl)cc(Cl)c2)C(F)(F)F)ccc1C(=O)O (centres undefined),114 to 115 °C
19,CC(C)(C)c1cc(CCc2cc(CO)cc(CCc3cc(C(C)(C)C)cc(C(C)(C)C)c3)c2)cc(C(C)(C)C)c1,101 °C
20,CC(C)(C)c1ccc(Sc2cc(C(=O)O)ccc2C(=O)O)cc1,325 to 326 °C
21,CCCCC#Cc1cc2c(cc1Br)C(C)(C)CCC2(C)C,59 to 63 °C
22,COc1ccc(CN2CCN(CCCOc3ccc4c(C)cc(=O)[nH]c4c3)CC2)cc1,167 to 168 °C
23,CC(C)=C1CNc2ccc(O)cc21,175 to 178 °C
24,COc1cc(NP(=O)(OC)OC)ccc1NC(=O)OCc1ccccc1,115 °C

# From a melting point compilation (Tetko et al.; mined from patent text by program, amines drawn as free bases though some values may be those of a salt)
